One experiment deals with T1, RatGluD2^9x (Rattus norvegicus, UniProt Q63226, A686S/D753Q/K694R/N720P/N763K/P806D/Q786M/R787V/Y613F).
T1 construct: expressed in transfected cells; host or cells: Xenopus laevis oocytes injected with mRNA
T1 sequence (Q63226 24-1007 Y613F/A686S/K694R/N720P/D753Q/N763K/Q786M/R787V/P806D): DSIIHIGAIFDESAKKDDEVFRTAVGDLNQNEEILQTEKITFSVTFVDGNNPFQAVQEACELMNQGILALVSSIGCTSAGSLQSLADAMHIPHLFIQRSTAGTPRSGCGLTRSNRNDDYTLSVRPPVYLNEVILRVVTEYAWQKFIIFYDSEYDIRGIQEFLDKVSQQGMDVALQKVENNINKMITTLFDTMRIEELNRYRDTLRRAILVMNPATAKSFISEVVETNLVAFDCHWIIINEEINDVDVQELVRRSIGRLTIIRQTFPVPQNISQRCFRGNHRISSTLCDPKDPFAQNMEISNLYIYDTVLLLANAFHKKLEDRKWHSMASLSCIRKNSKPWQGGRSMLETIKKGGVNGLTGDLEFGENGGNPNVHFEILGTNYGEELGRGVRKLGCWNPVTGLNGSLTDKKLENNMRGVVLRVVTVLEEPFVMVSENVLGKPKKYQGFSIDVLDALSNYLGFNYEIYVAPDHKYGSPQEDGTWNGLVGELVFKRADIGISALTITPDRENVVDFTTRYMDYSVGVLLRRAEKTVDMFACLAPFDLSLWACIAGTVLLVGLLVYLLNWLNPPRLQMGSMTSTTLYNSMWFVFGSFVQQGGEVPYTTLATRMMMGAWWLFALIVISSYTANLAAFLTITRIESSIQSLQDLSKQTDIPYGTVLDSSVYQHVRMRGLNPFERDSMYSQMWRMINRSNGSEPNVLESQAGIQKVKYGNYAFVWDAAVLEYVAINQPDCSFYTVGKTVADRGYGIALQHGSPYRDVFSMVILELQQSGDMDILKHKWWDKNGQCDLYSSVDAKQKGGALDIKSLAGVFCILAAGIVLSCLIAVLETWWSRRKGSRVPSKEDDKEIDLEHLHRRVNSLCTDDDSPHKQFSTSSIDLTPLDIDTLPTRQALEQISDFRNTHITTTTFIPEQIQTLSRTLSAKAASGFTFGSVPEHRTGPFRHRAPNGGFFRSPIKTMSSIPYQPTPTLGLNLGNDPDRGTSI
As to the kind of experiment: Two-electrode voltage clamp, responses to ligands in mutant-expressing oocytes. To be noted: ligands 30 mM. Type of experiment: cell-based. The text has this:
(§1) If the 10 mutations discussed above drove the loss of function in vertebrate delta iGluRs, one might expect that the latter could be “reawakened” via active invertebrate delta iGluR-like mutations here. We therefore engineered mutant RatGluD2 iGluRs to contain at these positions the equivalent residues from starfish delta iGluRs. These mutants were RatGluD2^5x, containing Y613F, A686S, K694R, N720P, and P806D substitutions (pink in Fig. 6A), and RatGluD2^9x, additionally containing N763K, D753Q, Q786M, and R787V (cyan in Fig. 6A).
(§2) Fig. 6. AcaGluD-like mutations alter RatGluD2 receptor function. (A) D-serine bound RatGluD2 from X-ray structure PDB:2v3u ([13]). Selected amino acid residues are indicated, colored, shown as sticks, and labeled 5×, 9×, 10×, and/or Lc according to the multiple mutants they were incorporated into. 10× mutant included 10×, 9×, and 5× positions. 9× included 9× and 5×. 5× included only 5×. […] (B–E) Example current responses to different neurotransmitter ligands (30 mM) and to pore blocker pentamidine (Pent, 100 μM) in oocytes expressing indicated RatGluD2 mutants. The dashed line indicates zero current baseline. (F) Individual (dots) and mean (columns) responses to ligands in oocytes expressing indicated RatGluD2 mutants (n = 4 to 5).

The target of the next experiment is T2, RatGluD2^5x (Rattus norvegicus, UniProt Q63226, A686S/K694R/N720P/P806D/Y613F).
T2 construct: expressed in transfected cells; host or cells: Xenopus laevis oocytes injected with mRNA
T2 sequence (Q63226 24-1007 Y613F/A686S/K694R/N720P/P806D): T1 sequence (Q63226 24-1007 Y613F/A686S/K694R/N720P/D753Q/N763K/Q786M/R787V/P806D) with Q730D, K740N, M763Q, V764R
The description is as above. Type of experiment: cell-based. To be noted: ligands 30 mM.
Text: as §1, §2

In the next experiment the test system is DanGluD2A^Lc. As to the kind of experiment: Two-electrode voltage clamp, inhibition of constitutive current in oocytes. Type of experiment: cell-based, Danio rerio. The following applies: lurcher-mutant receptor.

Each structure is given as a SMILES string. Substitutions are numbered along the chain they refer to.

With `NCC(=O)O` [glycine], the “current response to ligand” value at RatGluD2^9x and on RatGluD2^5x was “no responses” each time. For the same molecule, the “effect on constitutive currents” value in the experiment on DanGluD2A^Lc is given as “inactivated”.
`N[C@H](CO)C(=O)O` [D-serine]: the “current response to ligand” value at RatGluD2^9x and on RatGluD2^5x was “no responses” each time. Further, in the experiment on DanGluD2A^Lc, the “effect on constitutive currents” value is on record as “inactivated”.
Take `NCCCC(=O)O` [GABA, γ-aminobutyric acid]: the “current response to ligand” value on RatGluD2^9x and on RatGluD2^5x was “no responses” throughout. For the same molecule, the “inactivation of constitutive current relative to D-serine” value in the experiment on DanGluD2A^Lc (n = 4) is listed as 58 ± 8%.

Source of the values: article PMC10861852, “Loss of activation by GABA in vertebrate delta ionotropic glutamate receptors” (Proceedings of the National Academy of Sciences of the …, 2024).
